Reference: patent US8207204B2, “Triazole derivatives as SCD inhibitors” (GlaxoSmithKline LLC, priority 2007, dated 2012)

SMILES | melting point [°C]
Cc1nc(NC(=O)c2nnn(Cc3ccc(Cl)c(Cl)c3)c2C)sc1C(=O)O [Example 16, 2-[({1-[(3,4-Dichlorophenyl)methyl]-5-methyl-1H-1,2,3-triazol-4-yl}carbonyl)amino]-4-methyl-1,3-thiazole-5-carboxylic acid] | 262.6
CCOC(=O)c1ccc2nc(NC(=O)c3nnn(Cc4ccc(Cl)c(Cl)c4)c3C)sc2c1 [Example 11, Ethyl 2-[({1-[(3,4-dichlorophenyl)methyl]-5-methyl-1H-1,2,3-triazol-4-yl}carbonyl)amino]-1,3-benzothiazole-6-carboxylate] | 199
Cc1nc(NC(=O)c2nnn(Cc3ccc(Cl)c(Cl)c3)c2C)sc1C(=O)N1CCOCC1 [Example 24, 1-[(3,4-Dichlorophenyl)methyl]-5-methyl-N-[4-methyl-5-(4-morpholinyl-carbonyl)-1,3-thiazol-2-yl]-1H-1,2,3-triazole-4-carboxamide] | 202.9
Cc1c(C(=O)Nc2nncs2)nnn1Cc1ccc(Cl)c(Cl)c1 [Example 38, 1-[(3,4-Dichlorophenyl)methyl]-5-methyl-N-1,3,4-thiadiazol-2-yl-1H-1,2,3-triazole-4-carboxamide] | 215.6
CNC(=O)c1ccnc(NC(=O)c2nnn(Cc3ccc(Cl)c(Cl)c3)c2C)c1 [Example 32, 2-[({1-[(3,4-Dichlorophenyl)methyl]-5-methyl-1H-1,2,3-triazol-4-yl}carbonyl)amino]-N-methyl-4-pyridine-carboxamide] | 234.1
COCc1c(C(=O)Nc2ncc(CO)s2)nnn1Cc1ccc(Cl)c(Cl)c1 [Example 40, 1-[(3,4-Dichlorophenyl)methyl]-N-[5-(hydroxymethyl)-1,3-thiazol-2-yl]-5-[(methyloxy)methyl]-1H-1,2,3-triazole-4-carboxamide] | 205
CNC(=O)c1sc(NC(=O)c2nnn(Cc3ccc(Cl)c(Cl)c3)c2C)nc1C [Example 18, 1-[(3,4-Dichlorophenyl)methyl]-5-methyl-N-{4-methyl-5-[(methylamino)carbonyl]-1,3-thiazol-2-yl}-1H-1,2,3-triazole-4-carboxamide] | 218.5
COCc1nnc(NC(=O)c2nnn(Cc3ccc(Cl)c(Cl)c3)c2C)s1 [Example 7, 1-[(3,4-Dichlorophenyl)methyl]-5-methyl-N-{5-[(methyloxy)methyl]-1,3,4-thiadiazo1-2-yl}-1H-1,2,3-triazole-4-carboxamide] | 178.3
